Test results: ChEMBL document CHEMBL1201862, “PubChem BioAssay data set” (2004)
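Compound exposure: 48 hours, 5 concentrations, 96-well plates. Abbreviation: GI50, concentration required for 50% inhibition of growth.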 Calls of active or inactive are those of the source. Cut-off read from the data, not from the text of the source: active = GI50 up to about 1.1 µM and inactive = higher.

Legend:
Assay in all cases: NCI anticancer screen, dose series, 48 h
RXF 393 = test system: RXF 393
CCRF-CEM = test system: CCRF-CEM
A549 = test system: A549
A498 = test system: A498
HOP-18 = test system: HOP-18
Malme-3M = test system: Malme-3M
TK-10 = test system: TK-10
EKVX = test system: EKVX
SNB-19 = test system: SNB-19
SNB-78 = test system: SNB-78
HCT-116 = test system: HCT-116
DMS-114 = test system: DMS-114
M14 = test system: M14
SK-MEL-2 = test system: SK-MEL-2
NCI-H522 = test system: NCI-H522
OVCAR-4 = test system: OVCAR-4
HOP-62 = test system: HOP-62
U-251 = test system: U-251
DLD-1 = test system: DLD-1
OVCAR-8 = test system: OVCAR-8
CAKI-1 = test system: CAKI-1
UO-31 = test system: UO-31
DMS-273 = test system: DMS-273
COLO 205 = test system: COLO 205
SK-MEL-28 = test system: SK-MEL-28
786-0 = test system: 786-0
LOX IMVI = test system: LOX IMVI
NCI-H226 = test system: NCI-H226
SF-295 = test system: SF-295
SW-620 = test system: SW-620
LXFL 529 = test system: LXFL 529
SNB-75 = test system: SNB-75
IGROV-1 = test system: IGROV-1
SF-268 = test system: SF-268
SK-MEL-5 = test system: SK-MEL-5
NCI-H460 = test system: NCI-H460
RPMI-8226 = test system: RPMI-8226
K562 = test system: K562
SF-539 = test system: SF-539
HL-60 = test system: HL-60
SN12C = test system: SN12C
NCI-H23 = test system: NCI-H23
ACHN = test system: ACHN
HT-29 = test system: HT-29
MOLT-4 = test system: MOLT-4
HOP-92 = test system: HOP-92
M19-MEL = test system: M19-MEL
KM12 = test system: KM12
UACC-257 = test system: UACC-257
XF498 = test system: XF498
KM-20L2 = test system: KM-20L2
SK-OV-3 = test system: SK-OV-3
UACC-62 = test system: UACC-62
OVCAR-3 = test system: OVCAR-3
OVCAR-5 = test system: OVCAR-5
HCC 2998 = test system: HCC 2998

Measured: GI50

O=C(OCCO)C1CC2CC1C1(C2)OCCO1 (configuration not stated)
inactive: RXF 393 > 100 µM | CCRF-CEM > 100 µM | A549 > 100 µM | A498 > 100 µM | HOP-18 > 100 µM | Malme-3M > 100 µM | TK-10 > 100 µM | EKVX > 100 µM | SNB-19 > 100 µM | SNB-78 > 100 µM | HCT-116 > 100 µM | DMS-114 > 100 µM | M14 > 100 µM | SK-MEL-2 > 100 µM | NCI-H522 > 100 µM | OVCAR-4 > 100 µM | HOP-62 > 100 µM | U-251 > 100 µM | DLD-1 > 100 µM | OVCAR-8 > 100 µM | CAKI-1 > 100 µM | UO-31 > 100 µM | DMS-273 > 100 µM | COLO 205 > 100 µM | SK-MEL-28 > 100 µM | 786-0 > 100 µM | LOX IMVI > 100 µM | NCI-H226 > 100 µM | SF-295 > 100 µM | SW-620 > 100 µM | LXFL 529 > 100 µM | SNB-75 > 100 µM | IGROV-1 > 100 µM | SF-268 > 100 µM | SK-MEL-5 > 100 µM | NCI-H460 > 100 µM | RPMI-8226 > 100 µM | K562 > 100 µM | SF-539 > 100 µM | HL-60 > 100 µM | SN12C > 100 µM | NCI-H23 > 100 µM | ACHN > 100 µM | HT-29 > 100 µM | MOLT-4 > 100 µM | HOP-92 > 100 µM | M19-MEL > 100 µM | KM12 > 100 µM | UACC-257 > 100 µM | XF498 > 100 µM | KM-20L2 > 100 µM | SK-OV-3 > 100 µM | UACC-62 > 100 µM | OVCAR-3 > 100 µM | OVCAR-5 > 100 µM

Cc1ccc(C2=CC(=O)c3ccccc3C2=O)n1-c1ccccc1
inactive: RXF 393 > 100 µM | CCRF-CEM 23 µM | A549 > 100 µM | HOP-18 > 100 µM | TK-10 > 100 µM | EKVX > 100 µM | SNB-19 35.6 µM | SNB-78 > 100 µM | HCT-116 62.1 µM | DMS-114 24.6 µM | M14 > 100 µM | NCI-H522 > 100 µM | OVCAR-4 25.6 µM | HOP-62 > 100 µM | U-251 46.7 µM | DLD-1 > 100 µM | OVCAR-8 > 100 µM | DMS-273 > 100 µM | HCC 2998 > 100 µM | COLO 205 > 100 µM | SK-MEL-28 > 100 µM | 786-0 > 100 µM | LOX IMVI > 100 µM | NCI-H226 7.67 µM | SF-295 > 100 µM | SW-620 > 100 µM | LXFL 529 72.4 µM | SNB-75 > 100 µM | IGROV-1 > 100 µM | SF-268 > 100 µM | SK-MEL-5 > 100 µM | NCI-H460 48 µM | RPMI-8226 36.7 µM | K562 53 µM | SF-539 89.9 µM | HL-60 32.8 µM | SN12C > 100 µM | NCI-H23 > 100 µM | HT-29 > 100 µM | MOLT-4 26.1 µM | M19-MEL > 100 µM | KM12 43.1 µM | XF498 48.1 µM | KM-20L2 > 100 µM | SK-OV-3 > 100 µM | UACC-62 41.9 µM | OVCAR-3 87.1 µM
